Results reported in ChEMBL document CHEMBL1201862, “PubChem BioAssay data set” (2004).
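Five compound concentrations were applied to cells in 96-well plates for 48 hours; endpoints were derived by simple linear interpolation of the resulting dose-response curve. GI50 marks 50% less growth.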 The source made the active and inactive calls. Rule as the data show it: active = GI50 up to about 1.1 µM and inactive = higher.

Assays:
Experiment in all cases: NCI-60 cell line screen, 48 h
IGROV-1 = system: IGROV-1
HOP-62 = system: HOP-62
A549 = system: A549
KM12 = system: KM12
SK-MEL-2 = system: SK-MEL-2
COLO 205 = system: COLO 205
DMS-114 = system: DMS-114
HCT-15 = system: HCT-15
HCT-116 = system: HCT-116
MOLT-4 = system: MOLT-4
CCRF-CEM = system: CCRF-CEM
SR = system: SR
HCC 2998 = system: HCC 2998
SK-MEL-5 = system: SK-MEL-5
Malme-3M = system: Malme-3M
786-0 = system: 786-0
XF498 = system: XF498
OVCAR-4 = system: OVCAR-4
M14 = system: M14
DMS-273 = system: DMS-273
SF-295 = system: SF-295
RXF 393 = system: RXF 393
ACHN = system: ACHN
HL-60 = system: HL-60
EKVX = system: EKVX
NCI-H226 = system: NCI-H226
SF-539 = system: SF-539
UACC-257 = system: UACC-257
U-251 = system: U-251
NCI-H522 = system: NCI-H522
OVCAR-5 = system: OVCAR-5
RPMI-8226 = system: RPMI-8226
A498 = system: A498
M19-MEL = system: M19-MEL
OVCAR-3 = system: OVCAR-3
SNB-78 = system: SNB-78
HOP-18 = system: HOP-18
HT-29 = system: HT-29
SNB-19 = system: SNB-19
LXFL 529 = system: LXFL 529
NCI-H23 = system: NCI-H23
KM-20L2 = system: KM-20L2
NCI-H460 = system: NCI-H460
SW-620 = system: SW-620
SF-268 = system: SF-268
SNB-75 = system: SNB-75
TK-10 = system: TK-10
HOP-92 = system: HOP-92
DLD-1 = system: DLD-1
CAKI-1 = system: CAKI-1
LOX IMVI = system: LOX IMVI
K562 = system: K562
SN12C = system: SN12C
UACC-62 = system: UACC-62
UO-31 = system: UO-31
OVCAR-8 = system: OVCAR-8
SK-OV-3 = system: SK-OV-3
SK-MEL-28 = system: SK-MEL-28

COC(=O)C1=C(C)N(NC(=O)OC(C)(C)C)C(=O)C1=P(c1ccccc1)(c1ccccc1)c1ccccc1
GI50 (IGROV-1): > 100 µM (inactive)
GI50 (HOP-62): > 100 µM (inactive)
GI50 (A549): > 100 µM (inactive)
GI50 (KM12): 64 µM (inactive)
GI50 (SK-MEL-2): 17.2 µM (inactive)
GI50 (COLO 205): > 100 µM (inactive)
GI50 (DMS-114): > 100 µM (inactive)
GI50 (HCT-15): > 100 µM
GI50 (HCT-116): > 100 µM (inactive)
GI50 (MOLT-4): 41.4 µM (inactive)
GI50 (CCRF-CEM): > 100 µM (inactive)
GI50 (SR): 69 µM (inactive)
GI50 (HCC 2998): > 100 µM (inactive)
GI50 (SK-MEL-5): > 100 µM (inactive)
GI50 (Malme-3M): > 100 µM (inactive)
GI50 (786-0): > 100 µM (inactive)
GI50 (XF498): > 100 µM (inactive)
GI50 (OVCAR-4): > 100 µM (inactive)
GI50 (M14): > 100 µM (inactive)
GI50 (DMS-273): 35.2 µM (inactive)
GI50 (SF-295): 67.9 µM (inactive)
GI50 (RXF 393): > 100 µM (inactive)
GI50 (ACHN): > 100 µM (inactive)
GI50 (HL-60): 42.4 µM (inactive)
GI50 (EKVX): > 100 µM (inactive)
GI50 (NCI-H226): > 100 µM (inactive)
GI50 (SF-539): > 100 µM (inactive)
GI50 (UACC-257): > 100 µM (inactive)
GI50 (U-251): > 100 µM (inactive)
GI50 (NCI-H522): 75.5 µM (inactive)
GI50 (OVCAR-5): > 100 µM (inactive)
GI50 (RPMI-8226): > 100 µM (inactive)
GI50 (A498): > 100 µM (inactive)
GI50 (M19-MEL): > 100 µM (inactive)
GI50 (OVCAR-3): 66.8 µM (inactive)
GI50 (SNB-78): > 100 µM (inactive)
GI50 (HOP-18): > 100 µM (inactive)
GI50 (HT-29): > 100 µM (inactive)
GI50 (SNB-19): > 100 µM (inactive)
GI50 (LXFL 529): > 100 µM (inactive)
GI50 (NCI-H23): > 100 µM (inactive)
GI50 (KM-20L2): > 100 µM (inactive)
GI50 (NCI-H460): > 100 µM (inactive)
GI50 (SW-620): > 100 µM (inactive)
GI50 (SF-268): > 100 µM (inactive)
GI50 (SNB-75): > 100 µM (inactive)
GI50 (TK-10): > 100 µM (inactive)
GI50 (HOP-92): > 100 µM (inactive)
GI50 (DLD-1): > 100 µM (inactive)
GI50 (CAKI-1): > 100 µM (inactive)
GI50 (LOX IMVI): > 100 µM (inactive)
GI50 (K562): 73.5 µM (inactive)
GI50 (SN12C): > 100 µM (inactive)
GI50 (UACC-62): > 100 µM (inactive)
GI50 (UO-31): > 100 µM (inactive)
GI50 (OVCAR-8): > 100 µM (inactive)
GI50 (SK-OV-3): > 100 µM (inactive)

CC(C)c1ccc(O)c(=O)cc1 [GAMMA-THUJAPLICIN]
GI50 (IGROV-1): 10.4 µM (inactive)
GI50 (HOP-62): 4.41 µM (inactive)
GI50 (A549): 6.59 µM (inactive)
GI50 (KM12): 6.32 µM (inactive)
GI50 (SK-MEL-2): 5 µM (inactive)
GI50 (COLO 205): 3.74 µM (inactive)
GI50 (DMS-114): 2.92 µM (inactive)
GI50 (HCT-15): 4.59 µM
GI50 (HCT-116): 2.8 µM (inactive)
GI50 (MOLT-4): 2.79 µM (inactive)
GI50 (CCRF-CEM): 1.86 µM (inactive)
GI50 (SR): 1.66 µM (inactive)
GI50 (HCC 2998): 7.08 µM (inactive)
GI50 (SK-MEL-5): 9.35 µM (inactive)
GI50 (Malme-3M): 15.3 µM (inactive)
GI50 (786-0): 5.87 µM (inactive)
GI50 (XF498): 15.1 µM (inactive)
GI50 (OVCAR-4): 7.11 µM (inactive)
GI50 (M14): 7.64 µM (inactive)
GI50 (DMS-273): 3.89 µM (inactive)
GI50 (SF-295): 4.02 µM (inactive)
GI50 (RXF 393): 22.2 µM (inactive)
GI50 (ACHN): 6.05 µM (inactive)
GI50 (HL-60): 2.02 µM (inactive)
GI50 (EKVX): 10.1 µM (inactive)
GI50 (NCI-H226): 3.99 µM (inactive)
GI50 (SF-539): 2.38 µM (inactive)
GI50 (UACC-257): 3.38 µM (inactive)
GI50 (U-251): 7.29 µM (inactive)
GI50 (NCI-H522): 3.39 µM (inactive)
GI50 (OVCAR-5): 14.3 µM (inactive)
GI50 (RPMI-8226): 5.13 µM (inactive)
GI50 (A498): 19.6 µM (inactive)
GI50 (SK-MEL-28): 12.6 µM (inactive)
GI50 (M19-MEL): 6.46 µM (inactive)
GI50 (OVCAR-3): 2.48 µM (inactive)
GI50 (SNB-78): 20 µM (inactive)
GI50 (HOP-18): 5.62 µM (inactive)
GI50 (HT-29): 4.73 µM (inactive)
GI50 (SNB-19): 7.74 µM (inactive)
GI50 (LXFL 529): 5.53 µM (inactive)
GI50 (NCI-H23): 7.38 µM (inactive)
GI50 (KM-20L2): 3.99 µM (inactive)
GI50 (NCI-H460): 5.28 µM (inactive)
GI50 (SW-620): 4.78 µM (inactive)
GI50 (SF-268): 4.06 µM (inactive)
GI50 (SNB-75): 20.6 µM (inactive)
GI50 (TK-10): 16.1 µM (inactive)
GI50 (HOP-92): 5.62 µM (inactive)
GI50 (DLD-1): 5.56 µM (inactive)
GI50 (CAKI-1): 11.1 µM (inactive)
GI50 (LOX IMVI): 4.29 µM (inactive)
GI50 (K562): 9.33 µM (inactive)
GI50 (SN12C): 8.38 µM (inactive)
GI50 (UACC-62): 3.53 µM (inactive)
GI50 (UO-31): 3.42 µM (inactive)
GI50 (OVCAR-8): 3.46 µM (inactive)
GI50 (SK-OV-3): 42.8 µM (inactive)
